Measurements taken from ChEMBL document CHEMBL2157994, “Synthesis and in vitro and in vivo anticancer activity of novel 3-methyl-5H-isoxazolo[5',4':5,6]pyrido[2,3-b]indoles” (Bioorg Med Chem Lett, 2012).
Values after ≈ are worked out from the molar mass of the structure shown. Active and inactive are the calls of the source. The rule behind the calls is not given here.

Key:
HeLa = assay: Cytotoxicity against human HeLa cells after 48 hrs by MTT assay; type: functional, cell-based
MCF7 = assay: Cytotoxicity against human MCF7 cells after 48 hrs by MTT assay; type: functional, cell-based; conditions: MCF7, 48 h
NCI-H460 = assay: Cytotoxicity against human NCI-H460 cells after 48 hrs by MTT assay; type: functional, cell-based; conditions: NCI-H460, 48 h
Mus musculus [1] = assay: Toxicity in Swiss albino mouse xenografted with mouse EAC cells assessed as RBC level at 10 mg/kg/day, ip administered for 9 days measured on day 14 (reference value: 2.36 +/- 0.13 million/mm3); type: organism-based, Ehrlich; parameters: route intraperitoneal; conditions: in vivo, 216 h
Mus musculus [2] = assay: Toxicity in Swiss albino mouse xenografted with mouse EAC cells assessed as WBC level at 5 mg/kg/day, ip administered for 9 days measured on day 14 (reference value: 20.66 +/- 0.81 10^3/mm3); type: organism-based, Ehrlich; parameters: route intraperitoneal; conditions: in vivo, 216 h
Mus musculus [3] = assay: Toxicity in Swiss albino mouse xenografted with mouse EAC cells assessed as WBC level at 10 mg/kg/day, ip administered for 9 days measured on day 14 (reference value: 20.66 +/- 0.81 10^3/mm3); type: organism-based, Ehrlich; parameters: route intraperitoneal; conditions: in vivo, 216 h
Mus musculus [4] = assay: Hepatoprotective activity in Swiss albino mouse xenografted with mouse EAC cells assessed as SGPT level at 5 mg/kg/day, ip administered for 9 days measured on day 14 (reference value: 57.84 +/- 0.3 IU/L); type: functional, Ehrlich; conditions: route intraperitoneal
Mus musculus [5] = assay: Hepatoprotective activity in Swiss albino mouse xenografted with mouse EAC cells assessed as SGPT level at 10 mg/kg/day, ip administered for 9 days measured on day 14 (reference value: 57.84 +/- 0.3 IU/L); type: functional, Ehrlich; conditions: route intraperitoneal
Mus musculus [6] = assay: Hepatoprotective activity in Swiss albino mouse xenografted with mouse EAC cells assessed as SGOT level at 5 mg/kg/day, ip administered for 9 days measured on day 14 (reference value: 112 +/- 1.42 IU/L); type: functional, Ehrlich; conditions: route intraperitoneal
Mus musculus [7] = assay: Hepatoprotective activity in Swiss albino mouse xenografted with mouse EAC cells assessed as SGOT level at 10 mg/kg/day, ip administered for 9 days measured on day 14 (reference value: 112 +/- 1.42 IU/L); type: functional, Ehrlich; conditions: route intraperitoneal
Mus musculus [8] = assay: Hepatoprotective activity in Swiss albino mouse xenografted with mouse EAC cells assessed as total protein level at 5 mg/kg/day, ip administered for 9 days measured on day 14 (reference value: 7.54 +/- 0.14 mg/dL); type: functional, Ehrlich; conditions: route intraperitoneal
Mus musculus [9] = assay: Hepatoprotective activity in Swiss albino mouse xenografted with mouse EAC cells assessed as total protein level at 10 mg/kg/day, ip administered for 9 days measured on day 14 (reference value: 7.54 +/- 0.14 mg/dL); type: functional, Ehrlich; conditions: route intraperitoneal
Ehrlich = assay: Anticancer activity against mouse EAC cells xenografted in Swiss albino mouse assessed as decrease in ascitic fluid volume relative to tumor control; type: functional
Mus musculus [10] = assay: Toxicity in Swiss albino mouse xenografted with mouse EAC cells assessed as body weight at 5 mg/kg/day, ip administered for 9 days measured on day 14 (reference value: 13.57 +/- 0.8 g); type: organism-based, Ehrlich; parameters: route intraperitoneal; conditions: in vivo, 216 h
Mus musculus [11] = assay: Toxicity in Swiss albino mouse xenografted with mouse EAC cells assessed as body weight at 10 mg/kg/day, ip administered for 9 days measured on day 14 (reference value: 13.57 +/- 0.8 g); type: organism-based, Ehrlich; parameters: route intraperitoneal; conditions: in vivo, 216 h
[12] = Antitumor activity against mouse EAC cells xenografted in Swiss albino mouse assessed as increase in life span at 5 mg/kg/day, ip administered for 9 days relative to vehicle-treated control; type: functional, Ehrlich; conditions: route intraperitoneal
[13] = Antitumor activity against mouse EAC cells xenografted in Swiss albino mouse assessed as increase in life span at 10 mg/kg/day, ip administered for 9 days relative to vehicle-treated control; type: functional, Ehrlich; conditions: route intraperitoneal
[14] = Antitumor activity against mouse EAC cells xenografted in Swiss albino mouse assessed as tumor volume at 5 mg/kg/day, ip administered for 9 days measured on day 14 (reference value: 3.53 +/- 0.85 mL); type: functional, Ehrlich; conditions: route intraperitoneal
[15] = Antitumor activity against mouse EAC cells xenografted in Swiss albino mouse assessed as tumor volume at 10 mg/kg/day, ip administered for 9 days measured on day 14 (reference value: 3.53 +/- 0.85 mL); type: functional, Ehrlich; conditions: route intraperitoneal
[16] = Antitumor activity against mouse EAC cells xenografted in Swiss albino mouse assessed as packed cell volume at 5 mg/kg/day, ip administered for 9 days measured on day 14 (reference value: 2.2 +/- 0.26 mL); type: functional, Ehrlich; conditions: route intraperitoneal
[17] = Antitumor activity against mouse EAC cells xenografted in Swiss albino mouse assessed as packed cell volume at 10 mg/kg/day, ip administered for 9 days measured on day 14 (reference value: 2.2 +/- 0.26 mL); type: functional, Ehrlich; conditions: route intraperitoneal
[18] = Antitumor activity against mouse EAC cells xenografted in Swiss albino mouse assessed as viable tumor cells at 5 mg/kg/day, ip administered for 9 days measured on day 14 by trypan blue exclusion assay (reference value: 7 +/- 0.43 /ml); type: functional, Ehrlich; conditions: route intraperitoneal
[19] = Antitumor activity against mouse EAC cells xenografted in Swiss albino mouse assessed as viable tumor cells at 10 mg/kg/day, ip administered for 9 days measured on day 14 by trypan blue exclusion assay (reference value: 7 +/- 0.43 /ml); type: functional, Ehrlich; conditions: route intraperitoneal
[20] = Antitumor activity against mouse EAC cells xenografted in Swiss albino mouse assessed as non-viable tumor cells at 5 mg/kg/day, ip administered for 9 days measured on day 14 by trypan blue exclusion assay (reference value: 1.02 +/- 0.09 /ml); type: functional, Ehrlich; conditions: route intraperitoneal
[21] = Antitumor activity against mouse EAC cells xenografted in Swiss albino mouse assessed as non-viable tumor cells at 10 mg/kg/day, ip administered for 9 days measured on day 14 by trypan blue exclusion assay (reference value: 1.02 +/- 0.09 /ml); type: functional, Ehrlich; conditions: route intraperitoneal
Mus musculus [22] = assay: Toxicity in Swiss albino mouse xenografted with mouse EAC cells assessed as haemoglobin level at 5 mg/kg/day, ip administered for 9 days measured on day 14 (reference value: 5.54 +/- 0.734 g%); type: organism-based, Ehrlich; parameters: route intraperitoneal; conditions: in vivo, 216 h
Mus musculus [23] = assay: Toxicity in Swiss albino mouse xenografted with mouse EAC cells assessed as haemoglobin level at 10 mg/kg/day, ip administered for 9 days measured on day 14 (reference value: 5.54 +/- 0.734 g%); type: organism-based, Ehrlich; parameters: route intraperitoneal; conditions: in vivo, 216 h
Mus musculus [24] = assay: Toxicity in Swiss albino mouse xenografted with mouse EAC cells assessed as RBC level at 5 mg/kg/day, ip administered for 9 days measured on day 14 (reference value: 2.36 +/- 0.13 million/mm3); type: organism-based, Ehrlich; parameters: route intraperitoneal; conditions: in vivo, 216 h

## Cc1noc2cc3c(nc12)[nH]c1ccc(F)cc13
HeLa
  IC50: 50.5 mg/L (≈ 209 µM)
MCF7
  IC50: 51.3 mg/L (≈ 213 µM)
NCI-H460
  IC50: 52.4 mg/L (≈ 217 µM)

## Cc1ccc2[nH]c3nc4c(C)noc4cc3c2c1
Mus musculus [1]
  Activity: 3.66 million/mm3
Mus musculus [2]
  Activity: 19.19 ×10³ /mm3
Mus musculus [3]
  Activity: 16.58 ×10³ /mm3
Mus musculus [4]
  Activity: 54 IU/L
Mus musculus [5]
  Activity: 47.46 IU/L
Mus musculus [6]
  Activity: 106.1 IU/L
Mus musculus [7]
  Activity: 98.6 IU/L
Mus musculus [8]
  Activity: 7.18 mg/dL
Mus musculus [9]
  Activity: 6.63 mg/dL
Ehrlich
  Activity: Active
HeLa
  IC50: 19.7 mg/L (≈ 83.1 µM)
MCF7
  IC50: 18.8 mg/L (≈ 79.3 µM)
NCI-H460
  IC50: 16.7 mg/L (≈ 70.3 µM)
Mus musculus [10]
  Activity: 11.23 g
Mus musculus [11]
  Activity: 8.36 g
[12]
  Activity: 11.08%
[13]
  Activity: 44.4%
[14]
  Activity: 2.43 mL
[15]
  Activity: 1.63 mL
[16]
  Activity: 1.8 mL
[17]
  Activity: 1.33 mL
[18]
  Activity: 6.43 ×10⁷ /ml
[19]
  Activity: 5.2 ×10⁷ /ml
[20]
  Activity: 1.62 ×10⁷ /ml
[21]
  Activity: 2.07 ×10⁷ /ml
Mus musculus [22]
  Activity: 6.26 g%
Mus musculus [23]
  Activity: 7.3 g%
Mus musculus [24]
  Activity: 2.93 million/mm3

## Cc1noc2cc3c(nc12)[nH]c1ccc(Cl)cc13
HeLa
  IC50: 49.3 mg/L (≈ 191 µM)
MCF7
  IC50: 49.1 mg/L (≈ 190 µM)
NCI-H460
  IC50: 36.4 mg/L (≈ 141 µM)

## Cc1noc2cc3c(nc12)[nH]c1ccccc13
HeLa
  IC50: 54.5 mg/L (≈ 244 µM)
MCF7
  IC50: 53.4 mg/L (≈ 239 µM)
NCI-H460
  IC50: 49.2 mg/L (≈ 221 µM)

## COc1ccc2[nH]c3nc4c(C)noc4cc3c2c1
HeLa
  IC50: 48.3 mg/L (≈ 191 µM)
MCF7
  IC50: 46.5 mg/L (≈ 184 µM)
NCI-H460
  IC50: 45.2 mg/L (≈ 178 µM)

## Cc1noc2cc3c(nc12)[nH]c1c(C)cccc13
Mus musculus [1]
  Activity: 4.14 million/mm3
Mus musculus [2]
  Activity: 17.65 ×10³ /mm3
Mus musculus [3]
  Activity: 15.25 ×10³ /mm3
Mus musculus [4]
  Activity: 55.1 IU/L
Mus musculus [5]
  Activity: 41.06 IU/L
Mus musculus [6]
  Activity: 106.3 IU/L
Mus musculus [7]
  Activity: 101.06 IU/L
Mus musculus [8]
  Activity: 6.43 mg/dL
Mus musculus [9]
  Activity: 4.77 mg/dL
Ehrlich
  Activity: Active
HeLa
  IC50: 23.6 mg/L (≈ 99.6 µM)
MCF7
  IC50: 22.5 mg/L (≈ 94.9 µM)
NCI-H460
  IC50: 20.4 mg/L (≈ 86.2 µM)
Mus musculus [10]
  Activity: 9.76 g
Mus musculus [11]
  Activity: 5.93 g
[12]
  Activity: 36.36%
[13]
  Activity: 75%
[14]
  Activity: 2.13 mL
[15]
  Activity: 1.4 mL
[16]
  Activity: 1.36 mL
[17]
  Activity: 0.86 mL
[18]
  Activity: 4.74 ×10⁷ /ml
[19]
  Activity: 2.97 ×10⁷ /ml
[20]
  Activity: 2.31 ×10⁷ /ml
[21]
  Activity: 4.2 ×10⁷ /ml
Mus musculus [22]
  Activity: 7.09 g%
Mus musculus [23]
  Activity: 8.88 g%
Mus musculus [24]
  Activity: 3.34 million/mm3

## Cc1noc2cc3c(nc12)[nH]c1ccc(Br)cc13
HeLa
  IC50: 61.1 mg/L (≈ 202 µM)
MCF7
  IC50: 60.4 mg/L (≈ 200 µM)
NCI-H460
  IC50: 63.2 mg/L (≈ 209 µM)

## Cc1noc2cc3c(nc12)[nH]c1c(Cl)cccc13
HeLa
  IC50: 55.6 mg/L (≈ 216 µM)
MCF7
  IC50: 54.5 mg/L (≈ 212 µM)
NCI-H460
  IC50: 52.3 mg/L (≈ 203 µM)
